The supplement of paper PMC13380429

Columns and labels:
Conditions in all cases: 72 h
U2OS [1] = experiment: cell viability relative to DMSO; higher = less toxic
Vero E6 [2] = experiment: as above
Calu-3 [3] = experiment: as above
Caco-2 [4] = experiment: as above
HepG2 [5] = experiment: as above
U2OS [6] = experiment: drug sensitivity score (DSS) for viability; higher = more toxic; extreme values may be limits of the assay
Vero E6 [7] = experiment: as above
Calu-3 [8] = experiment: as above
Caco-2 [9] = experiment: as above
HepG2 [10] = experiment: as above
U2OS [11] = experiment: relative viability EC50 (midpoint between 100% and the lowest measured viability); higher = less toxic
Vero E6 [12] = experiment: as above
Calu-3 [13] = experiment: as above
Caco-2 [14] = experiment: as above
HepG2 [15] = experiment: as above

Compound | cell viability (U2OS [1]; 1 nM) | cell viability (U2OS [1]; 10 nM) | cell viability (U2OS [1]; 100 nM) | cell viability (U2OS [1]; 1000 nM) | cell viability (U2OS [1]; 10000 nM) | cell viability (Vero E6 [2]; 1 nM) | cell viability (Vero E6 [2]; 10 nM) | cell viability (Vero E6 [2]; 100 nM) | cell viability (Vero E6 [2]; 1000 nM) | cell viability (Vero E6 [2]; 10000 nM) | cell viability (Calu-3 [3]; 1 nM) | cell viability (Calu-3 [3]; 10 nM) | cell viability (Calu-3 [3]; 100 nM) | cell viability (Calu-3 [3]; 1000 nM) | cell viability (Calu-3 [3]; 10000 nM) | cell viability (Caco-2 [4]; 1 nM) | cell viability (Caco-2 [4]; 10 nM) | cell viability (Caco-2 [4]; 100 nM) | cell viability (Caco-2 [4]; 1000 nM) | cell viability (Caco-2 [4]; 10000 nM) | cell viability (HepG2 [5]; 1 nM) | cell viability (HepG2 [5]; 10 nM) | cell viability (HepG2 [5]; 100 nM) | cell viability (HepG2 [5]; 1000 nM) | cell viability (HepG2 [5]; 10000 nM) | drug sensitivity score (U2OS [6]) | drug sensitivity score (Vero E6 [7]) | drug sensitivity score (Calu-3 [8]) | drug sensitivity score (Caco-2 [9]) | drug sensitivity score (HepG2 [10]) | relative viability EC50 (U2OS [11]) | relative viability EC50 (Vero E6 [12]) | relative viability EC50 (Calu-3 [13]) | relative viability EC50 (Caco-2 [14]) | relative viability EC50 (HepG2 [15])
C[C@@H]([C@@H](O)c1ccc(O)cc1)N1CCC(O)(c2ccccc2)CC1 [traxoprodil] | 100% | 100% | 96.1% | 110% | 101% | 98.2% | 95.3% | 95.7% | 100% | 98.7% | 98.9% | 94.3% | 93.3% | 109% | 108% | 100% | 100% | 92.6% | 99.8% | 97% | 98.1% | 91.4% | 104% | 107% | 101% | 0 | 0 | 0 | 0 | 0 | > 10 µM | > 10 µM | > 10 µM | > 10 µM | > 10 µM
CC(CN(C)C)CN1c2ccccc2CCc2ccccc21 (stereo not given) [trimipramine] | 98.7% | 96.4% | 102% | 98.1% | 97.1% | 103% | 101% | 97.6% | 96.8% | 89.8% | 92.3% | 101% | 105% | 105% | 89.4% | 95.6% | 87.1% | 98% | 102% | 93.7% | 103% | 104% | 94.3% | 101% | 89.7% | 0 | 0 | 0 | 0 | 0 | > 10 µM | > 10 µM | > 10 µM | > 10 µM | > 10 µM
COc1cc(C(=S)N2CCOCC2)ccc1O [vanitiolide] | 104% | 99.5% | 95.4% | 98.7% | 101% | 97.2% | 91.6% | 93.4% | 95.2% | 105% | 108% | 108% | 99.1% | 98.4% | 104% | 87.7% | 92.9% | 102% | 106% | 97.6% | 99.8% | 92.8% | 97.2% | 102% | 109% | 0 | 0 | 0 | 0 | 0 | > 10 µM | > 10 µM | > 10 µM | > 10 µM | > 10 µM
CCC1=C[C@@H]2CN(C1)Cc1c([nH]c3ccccc13)[C@@](C(=O)OC)(c1cc3c(cc1OC)N(C)[C@H]1[C@@](O)(C(=O)OC)[C@H](OC(C)=O)[C@]4(CC)C=CCN5CC[C@]31[C@@H]54)C2 [vinorelbine] | 95.8% | 97% | 77.5% | 32.4% | 22.7% | 104% | 101% | 99.5% | 54% | 31.2% | 97.5% | 100% | 72.2% | 51.1% | 40.5% | 98.1% | 94.7% | 58.7% | 53% | 45.1% | 103% | 92.8% | 58.6% | 32.7% | 39% | 15.2 | 9.2 | 12.6 | 15.3 | 17.5 | 0.205 µM | 0.754 µM | 0.137 µM | 0.0465 µM | 0.0659 µM
O=C(NCCNCC(O)COc1ccc(O)cc1)N1CCOCC1 (stereo not given) [xamoterol] | 99.7% | 91.3% | 96.5% | 99.1% | 101% | 93.8% | 98.5% | 98% | 98.5% | 95.7% | 106% | 104% | 110% | 100% | 93.6% | 95.8% | 96.7% | 99.9% | 90.3% | 99.5% | 99.1% | 99.4% | 96.2% | 102% | 102% | 0 | 0 | 0 | 0 | 0 | > 10 µM | > 10 µM | > 10 µM | > 10 µM | > 10 µM
Cc1ncc(-c2csc(N=C(N)N)n2)[nH]1 [zaltidine] | 104% | 97.9% | 97.8% | 104% | 106% | 99.6% | 92.6% | 87.3% | 94.2% | 107% | 108% | 96% | 99.2% | 103% | 103% | 101% | 99% | 92.3% | 92.5% | 109% | 105% | 105% | 101% | 94.5% | 107% | 0 | 0 | 0 | 0 | 0 | > 10 µM | > 10 µM | > 10 µM | > 10 µM | > 10 µM
CC(c1cc2ccccc2s1)N(O)C(N)=O (stereo not given) [zileuton] | 97.1% | 98.7% | 96.9% | 102% | 96.4% | 103% | 105% | 107% | 101% | 99.7% | 89.5% | 90.6% | 102% | 96.1% | 94.6% | 93.7% | 96.3% | 93.3% | 100% | 91% | 109% | 95.1% | 101% | 94.2% | 102% | 0 | 0 | 0 | 0 | 0 | > 10 µM | > 10 µM | > 10 µM | > 10 µM | > 10 µM
